Experiments:
[1] = tested on: ERK1/2 MAPK; test: GDNF-induced ERK1/2 MAPK signaling activation in U251 cells (Western blot, phospho ERK1/2); type: cell-based, human; details: GDNF 100 ng/ml
Description: FIG. 18. GDNF-induced signaling activation in U251 human glioblastoma cells. Control and GDNF stimulated U251 cells were lysed with 2% SDS. Total protein lysates were quantified using microBCA protein assay (Pierce, Rockford, Ill., USA). Total protein (10 μg) were separated by SDS-PAGE and probed with antibodies against phospho ERK1/2 (Cell […] Technologies, Danvers, Mass., USA). The blots were striped in Western Blot Stripping Buffer (Pierce) and re-probed with total ERK1/2 (Cell Signaling Technologies) to verify equal loading. Chemiluminescence was imaged and analyzed by ChemiDoc system (Bio-Rad). A) Time-course of ERK1/2 MAPK activation by GDNF (100 ng/ml) in U251 cells. B) GDNF-induced ERK1/2 MAPK activation was inhibited by pre-treatment of MEK inhibitor U0126 (5 μM).
Human glioblastoma cell lines A172 and U251 were cultured in DMEM supplemented with 10% fetal bovine serum (FBS, Sigma) and antibiotics (100 U/ml penicillin and 100 μg/ml streptomycin) in a 5% CO2 humidified incubator at 37° C. U251 cells were seeded at 200,000 cells per well in E-well plate for 24 h and incubated with FBS-free DMEM medium for 12-16 h. The cells were then stimulated with 100 ng/ml of GDNF for defined periods of time in DMEM. […] The extracted RNA samples were then quantified using spectrophotometry and the integrity examined by denaturing RNA gel electrophoresis.

[2] = tested on: miRNA expression in U251 cells; test: GDNF-regulated miRNA expression in U251 cells quantified by hemi-nested real-time RT-PCR; type: cell-based, human
Description: Human glioblastoma cell lines A172 and U251 were cultured in DMEM supplemented with 10% fetal bovine serum (FBS, Sigma) and antibiotics (100 U/ml penicillin and 100 μg/ml streptomycin) in a 5% CO2 humidified incubator at 37° C. U251 cells were seeded at 200,000 cells per well in E-well plate for 24 h and incubated with FBS-free DMEM medium for 12-16 h. The cells were then stimulated with 100 ng/ml of GDNF for defined periods of time in DMEM. For MEK inhibitor studies, the cells were pre-incubated with 5 μM U0126 (Promega, Madison, Wis., USA) for 45 min in DMEM prior to GDNF stimulations. Total RNA from untreated or GDNF treated glioblastoma cells was isolated using TRIzol reagent (Invitrogen) in the presence of 20 μg/ml linear acrylamide (Ambion) according to the manufacturer's instructions. The extracted RNA samples were then quantified using spectrophotometry and the integrity examined by denaturing RNA gel electrophoresis. […]
Real-time PCR was performed on the CFX96 system (Bio-Rad, Hercules, Calif., USA) using SYBR GREEN™ I. Real-time PCR for precursor miRNA and U6 snRNA was performed according to previous reports (Schmittgen et al., 2004; Jiang et al., 2005). […] The threshold cycles (Ct) were calculated automatically using the CFX manager software (Bio-Rad). […]

[3] = molecular target: Taq polymerase (Thermus aquaticus, UniProt P19821); details: cited from earlier work
Taq polymerase, sequence (P19821 whole entry): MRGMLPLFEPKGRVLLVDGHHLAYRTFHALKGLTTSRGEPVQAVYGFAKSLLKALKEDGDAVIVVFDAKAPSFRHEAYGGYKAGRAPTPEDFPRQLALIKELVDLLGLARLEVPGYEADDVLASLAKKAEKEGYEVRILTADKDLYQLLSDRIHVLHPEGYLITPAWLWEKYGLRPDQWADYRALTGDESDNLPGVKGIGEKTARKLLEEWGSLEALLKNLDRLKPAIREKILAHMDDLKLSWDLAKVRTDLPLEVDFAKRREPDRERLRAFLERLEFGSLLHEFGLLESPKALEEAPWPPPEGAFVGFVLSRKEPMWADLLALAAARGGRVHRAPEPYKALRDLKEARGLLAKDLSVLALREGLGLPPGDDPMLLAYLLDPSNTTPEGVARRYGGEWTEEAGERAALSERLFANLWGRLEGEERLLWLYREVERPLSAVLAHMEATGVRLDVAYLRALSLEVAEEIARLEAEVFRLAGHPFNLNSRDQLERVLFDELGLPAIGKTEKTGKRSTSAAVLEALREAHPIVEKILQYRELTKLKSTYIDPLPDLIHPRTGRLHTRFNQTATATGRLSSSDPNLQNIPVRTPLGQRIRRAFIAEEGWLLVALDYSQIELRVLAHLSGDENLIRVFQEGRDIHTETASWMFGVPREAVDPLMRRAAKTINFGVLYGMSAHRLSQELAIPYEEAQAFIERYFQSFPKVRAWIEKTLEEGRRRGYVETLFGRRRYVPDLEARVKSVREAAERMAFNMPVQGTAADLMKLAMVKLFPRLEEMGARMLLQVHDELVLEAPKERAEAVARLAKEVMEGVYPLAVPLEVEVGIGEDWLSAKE

Molecule: N#CC(=C(/N)Sc1ccccc1N)/C(C#N)=C(\N)Sc1ccccc1N [U0126]
- inhibition of GDNF-induced ERK1/2 MAPK activation ([1]; U251 cells, pre-treatment with U0126 5 μM): inhibited
- inhibition of GDNF-induced up-regulation of the 6 miRNAs ([2]; pretreatment with U0126, 24-plex assay): effectively inhibited

Molecule: Nc1ccc([C@H]2C[C@H](O)[C@@H](COP(=O)(O)OP(=O)(O)OP(=O)(O)O)O2)cn1 [d*CTP, 2-amino-5-(2′-deoxy-b-D-ribofuranosyl)pyridine-5′-triphosphate]
- inhibition in PCR catalysed by Taq polymerase [3]: strong inhibition

Molecule: Cc1cc([C@H]2C[C@H](O)[C@@H](COP(=O)(O)OP(=O)(O)OP(=O)(O)O)O2)c[nH]c1=O [d*TTP, 5-(2′-deoxy-b-D-ribofuranosyl)-3-methyl-2-pyridone-5′-triphosphate]
- inhibition in PCR catalysed by Taq polymerase [3]: strong inhibition

B1: GDNF: GDNF used to stimulate U251 glioblastoma cells at 100 ng/ml (protein, UniProt P39905 78-211, looked up)
Glial cell line-derived …: SPDKQMAVLPRRERNRQAAAANPENSRGKGRRGQRGKNRGCVLTAIHLNVTDLGLGYETKEELIFRYCSGSCDAAETTYDKILKNLSRNRRLVSDKVGQACCRPIAFDDDLSFLDDNLVYHILRKHSAKRCGCI
- activation of ERK1/2 MAPK ([1]; U251 human glioblastoma cells, time-course): induced time-dependent activation of ERK1/2 MAPK
- regulation of miRNA expression (miR-7, -21, -218, let-7f, -7g, -7i), fold change to non-stimulated control ([2]; GDNF 100 ng/ml, temporal regulation): timedependent up-regulation

Source: patent publication US9850527B2, “Modified stem-loop oligonucleotide mediated reverse transcription and base-spacing constrained quantitative PCR” (National University of Singapore, priority 2010, dated 2017)
